In US20240360166A1, “SALTS AND SOLID FORMS OF A COMPOUND HAVING GLP-1 AGONIST ACTIVITY” (Gasherbrum Bio, Inc., priority 2022, published 2024):
Entries after “also recorded” stand apart in the source; their conditions may differ.

What was measured:
[1] = Dog pharmacokinetic study, Free Acid Form A, sodium salt Form A, L-arginine salt Form A in oral HPMC capsule (Table 8-5); assay type: in vivo; details: 2 mg/kg, male Beagle dogs
Description: The objective of this study was to characterize the pharmacokinetics (PK) of Compound I in male Beagle dogs after oral (PO) or IV administration. […] The dose was administered orally by gavage to dogs. […] The plasma concentration of Compound I was determined by liquid chromatography with mass spectrometric detection (LC-MS/MS).

[2] = Solid stability evaluation of free acid Form A, Na salt Form A and L-arginine salt Form A, 2 weeks (Table 5-5); assay type: physicochemical; details: for Form change: XRPD
[3] = Kinetic solubility in water, pH buffers and bio-relevant media at 37° C. (Table 5-6); assay type: physicochemical; details: for pH: pH of solubility sample; for XRPD: residual solids
Description: Around 10 mg material was weighed into 5 mL water, buffer solution, SGF, FaSSIF or FeSSIF^1 followed by rolling at 25 rpm at 37° C. for 0.5 and 1 h. At each time point, around 0.8 mL suspension was sampled out for centrifugation and filtration. Solids were tested by XRPD.

[4] = Hygroscopicity, DVS evaluation of free acid Form A and re-prepared salts (Table 5-7); assay type: physicochemical; details: for Form change after DVS: XRPD after DVS, * converted to a potential isomorphic hydrate by XRPD
Description: XRPD characterization was performed for the samples after DVS test.
DVS was measured via a SMS (Surface Measurement Systems) DVS Intrinsic. The relative humidity at 25° C. were calibrated against deliquescence point of LiCl, Mg(NO3)2 and KCl.

[5] = 25° C./92.5% RH, open container, 2 weeks
[6] = 40° C./75% RH, open container, 2 weeks
[7] = 60° C., tight container, 2 weeks
[8] = 50 mM acetate buffer (4.5), 0.5 h, 37° C.
[9] = alkaline borate buffer (8), 0.5 h, 37° C.
[10] = alkaline borate buffer (8), 1.0 h, 37° C.

In the case of “3-((1S,2S)-1-(2-((S)-3-(3-(4-(diethylphosphoryl)-3-(methylamino)phenyl)-2-oxo-2,3-dihydro-1H-imidazol-1-yl)-2-(4-fluoro-3,5-dimethylphenyl)-4-methyl-4,5,6,7-tetrahydro-2H-pyrazolo[4,3-c]pyridine-5-carbonyl)-5-(tetrahydro-2H-pyran-4-yl)-1H-indol-1-yl)-2-methylcyclopropyl)-1,2,4-oxadiazol-5(4H)-one sodium salt Form A [Compound I sodium salt Form A]”, the “Tmax (median)” value [1] is reported as 2.0 h, the “Tmax (range)” value [1] is reported as “[1.0-2.0] h” and the Cmax ([1]; mean) is reported as 64.1 ng/mL. The AUClast ([1]; mean, t = 8 h) was 198 h*ng/m:, the “Chemical and physical stability” value ([2]; 25° C./92.5% RH open, 40° C./75% RH open, 60° C. tight container, over 2 weeks, listed as Na salt Form A) was “chemically stable in these conditions but physically unstable at 25° C./92.5% RH and 40° C./75% RH” and the “Color Change” value [2, 5] was “No”. For the same substance, the “HPLC purity (%)” value [2, 5] was 99.1%, the “HPLC purity/initial (%)” value [2, 5] was >100% and the Form change ([2]; 25° C./92.5% RH, open container, 2 weeks, * Likely isomorphic hydrate) was “Yes*”. The “Color Change” value [2, 6] was “No”, the “HPLC purity (%)” value [2, 6] was 99.1% and the “HPLC purity/initial (%)” value [2, 6] was >100%. For the same substance, the Form change ([2]; 40° C./75% RH, open container, 2 weeks, * Likely isomorphic hydrate) was “Yes*”, the “Color Change” value [2, 7] was “No” and the “HPLC purity (%)” value [2, 7] was 99.1%. For the same substance, the “HPLC purity/initial (%)” value [2, 7] was >100%, the Form change [2, 7] was “No” and the “HPLC purity (%)” value ([2]; Initial) was 99.0%. The Solubility ([3]; 50 mM acetate buffer (4.5), 0.5 h, 37° C., LOQ = 0.500 μg/mL) was “<LOQ”, the pH [3, 8] was “(4.60)” and the XRPD [3, 8] was “AF^2”. The Solubility ([3]; 50 mM acetate buffer (4.5), 1.0 h, 37° C., LOQ = 0.500 μg/mL) was “<LOQ”, the pH ([3]; 50 mM acetate buffer (4.5), 1.0 h, 37° C.) was “(4.55)” and the Solubility ([3]; 0.1N HCl (1.2), 0.5 h, 37° C., LOQ = 0.500 μg/mL) was “<LOQ”. The pH ([3]; 0.1N HCl (1.2), 0.5 h, 37° C.) was “(0.95)”, the Solubility ([3]; 0.1N HCl (1.2), 1.0 h, 37° C., LOQ = 0.500 μg/mL) was “<LOQ” and the pH ([3]; 0.1N HCl (1.2), 1.0 h, 37° C.) was “(1.06)”. The XRPD ([3]; 0.1N HCl (1.2), 1.0 h, 37° C.) was “AF^1”, the “Kinetic solubility, comparison between forms” value ([3]; 37° C., 0.5 and 1 h) was “higher than that of L-arginine salt Form A” and the Solubility ([3]; FaSSIF (6.5), 0.5 h, 37° C.) was 9.1 µg/mL. For the same substance, the pH ([3]; FaSSIF (6.5), 0.5 h, 37° C.) was “(6.53)”, the XRPD ([3]; FaSSIF (6.5), 0.5 h, 37° C.) was “AF^3” and the Solubility ([3]; FaSSIF (6.5), 1.0 h, 37° C.) was 10.2 µg/mL. The pH ([3]; FaSSIF (6.5), 1.0 h, 37° C.) was “(6.60)”, the XRPD ([3]; FaSSIF (6.5), 1.0 h, 37° C.) was “AF^3” and the Solubility ([3]; FeSSIF (5.0), 0.5 h, 37° C.) was 42.7 µg/mL. For the same substance, the pH ([3]; FeSSIF (5.0), 0.5 h, 37° C.) was “(4.98)”, the Solubility ([3]; FeSSIF (5.0), 1.0 h, 37° C.) was 40.9 µg/mL and the pH ([3]; FeSSIF (5.0), 1.0 h, 37° C.) was “(5.06)”. The XRPD ([3]; FeSSIF (5.0), 1.0 h, 37° C.) was “AF^1”, the Solubility ([3]; H2O, 0.5 h, 37° C.) was 1907.0 µg/mL and the pH ([3]; H2O, 0.5 h, 37° C.) was “(8.50)”. The Solubility ([3]; H2O, 1.0 h, 37° C.) was 1742.2 µg/mL, the pH ([3]; H2O, 1.0 h, 37° C.) was “(8.34)” and the Solubility ([3]; SGF (2.0), 0.5 h, 37° C.) was 14.2 µg/mL. The pH ([3]; SGF (2.0), 0.5 h, 37° C.) was “(2.13)”, the XRPD ([3]; SGF (2.0), 0.5 h, 37° C.) was “AF^1” and the Solubility ([3]; SGF (2.0), 1.0 h, 37° C.) was 15.8 µg/mL. For the same substance, the pH ([3]; SGF (2.0), 1.0 h, 37° C.) was “(2.17)”, the XRPD ([3]; SGF (2.0), 1.0 h, 37° C.) was “AF^1” and the Solubility [3, 9] was 179.0 µg/mL. For the same substance, the pH [3, 9] was “(7.99)”, the XRPD [3, 9] was “AF^3” and the Solubility [3, 10] was 164.2 µg/mL. For the same substance, the pH [3, 10] was “(7.99)”, the XRPD [3, 10] was “AF^3” and the “Disproportionation after solubility study (XRPD)” value ([3]; solids after kinetic solubility test) was “disproportionation was observed”. The “Water uptake (@ 25° C./40-95% RH)” value ([4]; DVS, 25° C., 40-95% RH) was 10.4%, the “Form change after DVS” value ([4]; listed as Compound I Na salt Form A) was “converted to a new form; also recorded: form change was observed” and the “Form change after DVS” value ([4]; listed as Na salt Form A) was “Yes*”.
